In general, IC50 refers to the concentration that inhibits the measured activity by half. A word on the EC50: it is the concentration giving half of the maximal effect.

Experiment [1] addresses T1, HCV NS3/4A protease complex (BMS strain, genotype 1a) (Hepatitis C virus genotype 1a, UniProt P27958, C1454S).
T1 construct: DNA encoding the recombinant HCV NS3/4A protease complex (amino acids 1027 to 1711) for these strains; inferred from the pET21b vector and Ni-NTA purification; made in house; host or cells: Escherichia coli BL21 (DE3), pET21b
Kind of experiment: Recombinant HCV NS3/4A protease complex FRET peptide assay, BMS strain. The format is biochemical. To be noted: IC50 range, NS3/4A BMS Strain. An excerpt:
The purpose of this in vitro assay was to measure the inhibition of HCV NS3 protease complexes, derived from the BMS, H77C or J416S strains, as described below, by compounds of the present invention.
Serum from an HCV-infected patient was obtained from Dr. T. Wright, San Francisco Hospital. An engineered full-length cDNA (compliment deoxyribonucleic acid) template of the HCV genome (BMS strain) was constructed from DNA fragments obtained by reverse transcription-PCR (RT-PCR) of serum RNA (ribonucleic acid) and using primers selected on the basis of homology between other genotype 1a strains. […] The infectious clones, H77C (1a genotype) and J4L6S (1b genotype) were obtained from R. Purcell (NIH) and the sequences are published in Genbank (AAB67036, see Yanagi,M., Purcell,R. H., Emerson,S. U. and Bukh,J. Proc. Natl. Acad. Sci. U.S.A. 94(16),8738-8743 (1997); AF054247, see Yanagi,M., St Claire,M., Shapiro,M., Emerson,S. U., Purcell,R. H. and Bukh,J, Virology 244 (1), 161-172. (1998)).
The BMS, H77C and J4L6S strains were used for production of recombinant NS3/4A protease complexes. DNA encoding the recombinant HCV NS3/4A protease complex (amino acids 1027 to 1711) for these strains were manipulated as described by P. Gallinari et al. (see Gallinari P, Paolini C, Brennan D, Nardi C, Steinkuhler C, De Francesco R. Biochemistry. 38(17):5620-32, (1999)). Briefly, a three-lysine solubilizing tail was added at the 3′-end of the NS4A coding region. The cysteine in the P1 position of the NS4A-NS4B cleavage site (amino acid 1711) was changed to a glycine to avoid the proteolytic cleavage of the lysine tag. Furthermore, a cysteine to serine mutation was introduced by PCR at amino acid position 1454 to prevent the autolytic cleavage in the NS3 helicase domain. The variant DNA fragment was cloned in the pET21b bacterial expression vector (Novagen) and the NS3/4A complex was expressed in Escherichia. coli strain BL21 (DE3) (Invitrogen) following the protocol described by P. Gallinari et al. (see Gallinari P, Brennan D, Nardi C, Brunetti M, Tomei L, Steinkuhler C, De Francesco R., J. Virol. 72(8):6758-69 (1998)) with modifications. Briefly, NS3/4A expression was induced with 0.5 mM Isopropyl β-D-1-thiogalactopyranoside (IPTG) for 22 hr at 20° C. […] The cells were resuspended in lysis buffer (10 mL/g) consisting of 25 mM N-(2-Hydroxyethyl)Piperazine-N′-(2-Ethane Sulfonic acid) (HEPES), pH 7.5, 20% glycerol, 500 mM Sodium Chloride (NaCl), 0.5% Triton-X100, 1 ug/ml lysozyme, 5 mM Magnesium Chloride (MgCl2), 1 ug/ml DnaseI, 5 mM β-Mercaptoethanol (βME), Protease inhibitor—Ethylenediamine Tetraacetic acid (EDTA) free (Roche), homogenized and incubated for 20 mins at 4° C. The homogenate was sonicated and clarified by ultra-centrifugation at 235000 g for 1 hr at 4° C. Imidazole was added to the supernatant to a final concentration of 15 mM and the pH adjusted to 8.0. The crude protein extract was loaded on a Nickel-Nitrilotriacetic acid (Ni-NTA) column pre-equilibrated with buffer B (25 mM HEPES, pH 8.0, 20% glycerol, 500 mM NaCl, 0.5% Triton-X100, 15 mM imidazole, 5 mM βME). The sample was loaded at a flow rate of 1 mL/min. The column was washed with 15 column volumes of buffer C (same as buffer B except with 0.2% Triton-X100). The protein was eluted with 5 column volumes of buffer D (same as buffer C except with 200 mM Imidazole).
NS3/4A protease complex-containing fractions were pooled and loaded on a desalting column Superdex-S200 pre-equilibrated with buffer D (25 mM HEPES, pH7.5, 20% glycerol, 300 mM NaCl, 0.2% Triton-X100, 10 mM βME).

Experiment [2] deals with HCV replicon in Huh7 cells. Kind of experiment: HCV replicon cell-based assay (FRET). The settings on record: Hepatitis C virus, Huh-7; HCV replicon; read-out: EC50 range. The text has this: An HCV replicon whole cell system was established as described by Lohmann V, Korner F, Koch J, Herian U, Theilmann L, Bartenschlager R., Science 285(5424):110-3 (1999). This system enabled us to evaluate the effects of our HCV Protease compounds on HCV RNA replication. Briefly, using the HCV strain 1B sequence described in the Lohmann paper (Assession number: AJ238799), an HCV cDNA was generated encoding the 5′ internal ribosome entry site (IRES), the neomycin resistance gene, the EMCV (encephalomyocarditis viurs)-IRES and the HCV nonstructural proteins, NS3-NS5B, and 3′ non-translated region (NTR). In vitro transcripts of the cDNA were transfected into the human hepatoma cell line, Huh7. […] Resulting cell lines were characterized for positive and negative strand RNA production and protein production over time.
Huh7 cells, constitutively expressing the HCV replicon, were grown in Dulbecco's Modified Eagle Media (DMEM) containing 10% Fetal calf serum (FCS) and 1 mg/ml G418 (Gibco-BRL). Cells were seeded the night before (1.5×10^4 cells/well) in 96-well tissue-culture sterile plates. Compound and no compound controls were prepared in DMEM containing 4% FCS, 1:100 Penicillin/Streptomysin, 1:100 L-glutamine and 5% DMSO in the dilution plate (0.5% DMSO final concentration in the assay). Compound/DMSO mixes were added to the cells and incubated for 4 days at 37° C. After 4 days, plates were rinsed thoroughly with Phosphate-Buffered Saline (PBS) (3 times 150 μl). The cells were lysed with 25 μl of a lysis assay reagent containing the FRET peptide (RET S1, as described for the in vitro enzyme assay). The lysis assay reagent was made from 5× cell Luciferase cell culture lysis reagent(Promega #E153A) diluted to 1× with distilled water, NaCl added to 150 mM final, the FRET peptide diluted to 10 μM final from a 2 mM stock in 100% DMSO. The plate was then placed into the Cytofluor 4000 instrument which had been set to 340 nm excitation/490 emission, automatic mode for 21 cycles and the plate read in a kinetic mode. EC50 determinations were carried out as described for the IC50 determinations.
On the technique in general: Replicon systems follow genome replication, usually without infectious particles.

T1 sequence (P27958 1658-1714, looked up, stated change not applied): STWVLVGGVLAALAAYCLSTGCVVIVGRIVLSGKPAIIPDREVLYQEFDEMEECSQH
T1 sequence (P27958 1027-1657, looked up, stated change not applied): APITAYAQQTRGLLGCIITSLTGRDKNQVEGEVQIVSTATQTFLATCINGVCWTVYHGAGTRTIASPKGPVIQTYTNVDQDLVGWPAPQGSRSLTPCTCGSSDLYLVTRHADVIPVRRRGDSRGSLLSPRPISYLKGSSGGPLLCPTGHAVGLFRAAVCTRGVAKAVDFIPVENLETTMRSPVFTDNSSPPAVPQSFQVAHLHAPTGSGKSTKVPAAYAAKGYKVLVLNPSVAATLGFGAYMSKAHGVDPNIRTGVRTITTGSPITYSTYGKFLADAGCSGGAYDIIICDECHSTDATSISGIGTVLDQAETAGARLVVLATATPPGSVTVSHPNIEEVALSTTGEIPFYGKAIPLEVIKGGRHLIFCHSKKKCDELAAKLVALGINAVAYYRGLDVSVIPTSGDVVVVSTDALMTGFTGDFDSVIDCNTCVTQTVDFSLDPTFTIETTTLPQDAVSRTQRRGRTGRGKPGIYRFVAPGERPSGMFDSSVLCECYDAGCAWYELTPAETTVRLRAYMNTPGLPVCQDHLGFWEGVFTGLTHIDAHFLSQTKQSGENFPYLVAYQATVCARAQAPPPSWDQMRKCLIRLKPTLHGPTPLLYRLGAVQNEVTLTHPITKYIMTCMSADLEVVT

For the molecule `CCCC1(S(=O)(=O)NC(=O)C2(NC(=O)[C@@H]3C[C@@H](Oc4cc(-c5ccccc5)nc5cc(OC)ccc45)CN3C(=O)[C@@H](NC(=O)OC(C)(C)C)C(C)(C)C)CC23CC3)CC1` (mixture of isomers) [Compound 200, (1-{4-(7-Methoxy-2-phenyl-quinolin-4-yloxy)-2-[1-(1-propyl-cyclopropane-sulfonylaminocarbonyl)-spiro[2.2]pent-1-ylcarbamoyl]-pyrrolidine-1-carbonyl}-2,2-dimethyl-propyl)-carbamic acid tert-butyl ester], in experiment [1], the concentration for half-maximal inhibition (IC50) is 0.05 to 0.5 µM. For the same molecule, the EC50 in experiment [2] lay in the range of 0.5 to 5 µM.
Consider `COc1ccc2c(O[C@@H]3C[C@@H](C(=O)NC4(C(=O)NS(=O)(=O)C5(Cc6ccccc6)CC5)CC45CC5)N(C(=O)[C@@H](NC(=O)OC(C)(C)C)C(C)(C)C)C3)cc(-c3ccccc3)nc2c1` (mixture of isomers) [Compound 201, {1-[2-[1-(1-Benzyl-cyclopropanesulfonylaminocarbonyl)-spiro[2.2]pent-1-ylcarbamoyl]-4-(7-methoxy-2-phenyl-quinolin-4-yloxy)-pyrrolidine-1-carbonyl]-2,2-dimethyl-propyl}-carbamic acid tert-butyl ester], for which the IC50 in experiment [1] was in the range of 0.5 to 5 µM. Further, the EC50 in experiment [2] is 5 to 50 µM.
The corresponding values for `COc1ccc2c(O[C@@H]3C[C@@H](C(=O)NC4(C(=O)NS(=O)(=O)C5(CC6CC6)CC5)CC45CC5)N(C(=O)[C@@H](NC(=O)OC(C)(C)C)C(C)(C)C)C3)cc(-c3ccccc3)nc2c1` (mixture of isomers) [Compound 202, {1-[2-[1-(1-Cyclopropylmethyl-cyclopropanesulfonylaminocarbonyl)-spiro[2.2]pent-1-ylcarbamoyl]-4-(7-methoxy-2-phenyl-quinolin-4-yloxy)-pyrrolidine-1-carbonyl]-2,2-dimethyl-propyl}-carbamic acid tert-butyl ester] are 0.05 to 0.5 µM and 0.5 to 5 µM.
Consider `C=CC1C[C@]1(NC(=O)[C@@H]1C[C@@H](Oc2cc(-c3ccccc3)nc3cc(OC)ccc23)CN1C(=O)[C@@H](NC(=O)OC(C)(C)C)C(C)(C)C)C(=O)NS(=O)(=O)C1(C2=CCCCC2)CC1` (stereo in doubt) [Compound 3, {1-[2-[1-(1-Cyclohex-1-enyl-cyclopropanesulfonylaminocarbonyl)-2-vinylcyclopropylcarbamoyl]-4-(7-methoxy-2-phenyl-quinolin-4-yloxy)pyrrolidine-1-carbonyl]-2,2-dimethylpropyl}carbamic acid tert-butyl ester], for which the IC50 in experiment [1] was in the range of 0.05 to 0.5 µM. Besides, the concentration for a half-maximal effect (EC50) in experiment [2] was in the range of 0.05 to 0.5 µM.
Consider `C=CC1C[C@]1(NC(=O)[C@@H]1C[C@@H](Oc2cc(-c3ccccc3)nc3cc(OC)ccc23)CN1C(=O)[C@@H](NC(=O)OC(C)(C)C)C(C)(C)C)C(=O)NS(=O)(=O)C1(C(=O)c2ccccc2)CC1` (stereo in doubt) [Compound 4, {1-[2-[1-(1-Benzoylcyclopropanesulfonyl-aminocarbonyl)-2-vinyl-cyclopropylcarbamoyl]-4-(7-methoxy-2-phenylquinolin-4-yloxy)-pyrrolidine-1-carbonyl]-2,2-dimethylpropyl}-carbamic acid tert-butyl ester], for which the IC50 in experiment [1] was in the range of 0.05 to 0.5 µM. Moreover, the concentration giving a half-maximal response (EC50) in experiment [2] was 0.05 to 0.5 µM.
As to `C=CC1C[C@]1(NC(=O)[C@@H]1C[C@@H](Oc2cc(-c3ccccc3)nc3cc(OC)ccc23)CN1C(=O)[C@@H](NC(=O)OC(C)(C)C)C(C)(C)C)C(=O)NS(=O)(=O)C1(Cc2ccccc2)CC1` (stereo in doubt) [Compound 5, {1-[2-[1-(1-Benzylcyclopropanesulfonyl-aminocarbonyl)-2-vinyl-cyclopropylcarbamoyl]-4-(7-methoxy-2-phenylquinolin-4-yloxy)-pyrrolidine-1-carbonyl]-2,2-dimethylpropyl}-carbamic acid tert-butyl ester], the IC50 in experiment [1] is below 0.05 µM. Further, the EC50 in experiment [2] is below 0.05 µM.
As to `C=CC1C[C@]1(NC(=O)[C@@H]1C[C@@H](Oc2cc(-c3ccccc3)nc3cc(OC)ccc23)CN1C(=O)[C@@H](NC(=O)OC(C)(C)C)C(C)(C)C)C(=O)NS(=O)(=O)C1(C(=O)Nc2ccccc2)CC1` (stereo in doubt) [Compound 6, (1-{4-(7-Methoxy-2-phenyl-quinolin-4-yloxy)-2-[1-(1-phenylcarbamoyl-cyclopropane-sulfonylaminocarbonyl)-2-vinylcyclopropylcarbamoyl]-pyrrolidine-1-carbonyl}-2,2-dimethyl-propyl)carbamic acid tert-butyl ester], the IC50 in experiment [1] is below 0.05 µM. For the same molecule, in experiment [2], the half-maximal effective concentration (EC50) was in the range of 0.05 to 0.5 µM.
As for `COc1ccc2c(O[C@@H]3C[C@@H](C(=O)NC4(C(=O)NS(=O)(=O)C5(C(=O)c6ccccc6)CC5)CC4)N(C(=O)[C@@H](NC(=O)OC(C)(C)C)C(C)(C)C)C3)cc(-c3ccccc3)nc2c1` [Compound 73], the concentration for half-maximal inhibition (IC50) in experiment [1] was 0.5 to 5 µM.
Still for that read-out and setting: the value for `C=C[C@@H]1C[C@]1(NC(=O)[C@@H]1C[C@@H](Oc2cc(-c3ccccc3)nc3cc(OC)ccc23)CN1C(=O)[C@@H](NC(=O)O[C@@H]1C[C@H](C)CC[C@H]1C(C)C)C(C)(C)C)C(=O)NS(=O)(=O)C1(Cc2ccccc2)CC1` [Compound 109] was 0.5 to 5 µM; that for `C=C[C@@H]1C[C@]1(NC(=O)[C@@H]1C[C@@H](Oc2cc(-c3ccccc3)nc3cc(OC)ccc23)CN1C(=O)[C@@H](NC(=O)[C@@H]1COc2ccccc2O1)C(C)(C)C)C(=O)NS(=O)(=O)C1(Cc2ccccc2)CC1` [Compound 113] was 0.5 to 5 µM.

Source of the values: patent US6878722B2, “Substituted cycloalkyl P1′ hepatitis C virus inhibitors” (Bristol-Myers Squibb Company, priority 2002, dated 2005).
